Data reported in patent US20010011143A1, “Process for preparing phenoxyphenylsulfonyl halides” (priority 1998, published 2001).

melting point: 78 to 83 °C
Structure (SMILES): O=S(=O)(Oc1ccc(F)cc1)c1ccc(Oc2ccc(F)cc2)cc1 [Example 1, 4-(4-Fluorophenoxy)benzenesulfonic Acid 4-Fluorophenyl Ester]
